Source: US20250107543A1, “TREATMENT OF AGRICULTURAL, FOOD AND RELATED PRODUCTS FOR ELIMINATING CONTAMINANTS AND ENCHANCING SHELF-LIFE” (priority 2022, published 2025)

Assays:
weevils and weevil eggs [1] = assay: Shelf-Life Assessment of Wheat; set-up: key to Visual observation: Pin holes on grain / Visual observation: Powder at the bottom of bag / Weevils/Insects: ✓ Not observed; x Observed; details: for Visual observation: Pin holes on grain / Visual observation: Powder at the bottom of bag / Weevils/Insects: Treated sample
Protocol: (§1) The data presented in Table-5 illustrates the efficiency of the system of the present disclosure in pre-conditioning and deactivation of weevils and weevil eggs results in delayed occurrence of insect infestation in grains.
(§2) Grains such as Dry corn, Groundnut, Rice & Wheat were separately pre-conditioned and decontaminated in the system of the present disclosure. Grains were exposed to trioxygen gas for up to 5 minutes. The products were put under pressure of trioxygen gas for a span of 9 minutes to 26 minutes. Trioxygen gas having capacity 500 g/h was generated by the trioxygen generator of the system (on site) with a constant oxygen flow rate and delivered to the decontamination chamber through silicon tube. All products were treated with hot air and then analyzed for the presence of the weevils and weevil eggs the results obtained are summarized in Table-5.

[2] = Pesticide residue in treated whole red chilli: Azoxystrobin; details: whole red chilli 12 kg's, Trial 1; HOCL and Trioxygen simultaneously
Text: (§3) This experiment illustrates the treatment of whole red chilli contaminated with pesticide residues.
(§4) The data presented in Table-6 illustrates the efficacy of the present disclosure in detoxifying contaminated whole red chillies. Sets of whole red chillies of 12 kg's contaminated with pesticides like Azoxystrobin, Imidacloprid Novaluron and Myclobutanil were used for the experiment. An inert gas (Nitrogen & Carbon-di-oxide) were introduced into the chamber filled with the material to drive out existing air and oxygen in the chamber. Pre-conditioning was carried out with HOCL and trioxygen being introduced simultaneously in decontamination chamber with faster decontamination process in the system with a shorter timeline protocol.
(§5) The red chillies were exposed with HOCL and Trioxygen simultaneously for 2 minutes. The products were put under pressure of 2 bar of trioxygen gas for a span of 9 minutes to 26 minutes. Based on the commodity characteristics, the exposure of trioxygen gas was repeated 10 times. Trioxygen gas having a capacity 500 g/h was generated by the trioxygen generator (on site) of the system with a constant oxygen flow rate and delivered to the decontamination chamber through silicon tube. The whole red chillies were then treated to heated air.

weevils and weevil eggs [3] = assay: Shelf-Life Assessment of Rice; set-up: key to Visual observation: Pin holes on grain / Visual observation: Powder at the bottom of bag / Weevils/Insects: ✓ Not observed; x Observed; details: for Visual observation: Pin holes on grain / Visual observation: Powder at the bottom of bag / Weevils/Insects: Treated sample
Protocol: as §1, §2

[4] = Pesticide residue in treated whole red chilli: Novaluron; details: whole red chilli 12 kg's, Trial 1; HOCL and Trioxygen simultaneously
Text: as §3, §4, §5

yeast, mould = assay: Yeast & Mould Count of treated whole red chilli; details: whole red chilli 12 kg's
Protocol: (§6) This experiment illustrates the treatment of aerobic micro-organisms, yeast, mould, coliform, E. coli, Salmonella and fat soluble metabolites contaminated whole red chilli.
(§7) The data presented in Table-2 illustrate the efficacy of the present disclosure in detoxifying contaminated whole red chillies. […].
as §5, with “with” for “with HOCL and”, “Trioxygen” for “Trioxygen simultaneously”, “pressure” for “pressure of 2 bar”

coliform = assay: Coliform Count of treated whole red chilli; details: whole red chilli 12 kg's
Protocol: as §6, §7
as §5, with “with” for “with HOCL and”, “Trioxygen” for “Trioxygen simultaneously”, “pressure” for “pressure of 2 bar”

E. coli = assay: Detection of E. coli in treated whole red chilli; details: whole red chilli 12 kg's, Trial 3
Protocol: as §6, §7
as §5, with “with” for “with HOCL and”, “Trioxygen” for “Trioxygen simultaneously”, “pressure” for “pressure of 2 bar”

[5] = C17H12O6 content of treated whole red chilli; details: whole red chilli 12 kg's
Protocol: as §6, §7
as §5, with “with” for “with HOCL and”, “Trioxygen” for “Trioxygen simultaneously”, “pressure” for “pressure of 2 bar”

[6] = Pesticide residue in treated whole red chilli: Imidacloprid; details: whole red chilli 12 kg's, Trial 1; HOCL and Trioxygen simultaneously
Text: as §3, §4, §5

aerobic micro-organisms = assay: Aerobic/Total Plate Count of whole red chilli after pre-conditioning, trioxygen and heated air; details: whole red chilli 12 kg's
Protocol: as §6, §7
as §5, with “with” for “with HOCL and”, “Trioxygen” for “Trioxygen simultaneously”, “pressure” for “pressure of 2 bar”

O=[O+][O-] [Trioxygen]
No weevil infestation in system treated samples up to (weevils and weevil eggs [1]): up to 3 months
Treatment effective in delaying infestation up to (weevils and weevil eggs [1]): up to 6 months
Remarks on Weevils/Insects, Treated (weevils and weevil eggs [1]; Post 1.5 Months): No weevils/insects
Remarks on Weevils/Insects, Treated (weevils and weevil eggs [1]; Post 2 Months): No weevils/insects
Remarks on Weevils/Insects, Treated (weevils and weevil eggs [1]; Post 3 Months): No weevils/insects
Remarks on Weevils/Insects, Treated: cream/buff colour insect (3 mm) observed alive (weevils and weevil eggs [1]; Post 5 Months): 2 cream/buff colour
Remarks on Weevils/Insects, Treated: cream/buff colour insect (3 mm) observed alive (weevils and weevil eggs [1]; Post 6 Months): 3 cream/buff colour
Remarks on Weevils/Insects, Treated: cream/buff colour insect (3 mm) observed alive (weevils and weevil eggs [1]; Post 7 Months): 3 cream/buff colour
Visual observation: Pin holes on grain (weevils and weevil eggs [1]; 1.5 Months): ✓
Visual observation: Powder at the bottom of bag (weevils and weevil eggs [1]; 1.5 Months): ✓
Weevils/Insects (weevils and weevil eggs [1]; 1.5 Months): ✓
Visual observation: Pin holes on grain (weevils and weevil eggs [1]; 2 Months): ✓
Visual observation: Powder at the bottom of bag (weevils and weevil eggs [1]; 2 Months): ✓
Weevils/Insects (weevils and weevil eggs [1]; 2 Months): ✓
Visual observation: Pin holes on grain (weevils and weevil eggs [1]; 3 Months): ✓
Visual observation: Powder at the bottom of bag (weevils and weevil eggs [1]; 3 Months): ✓
Weevils/Insects (weevils and weevil eggs [1]; 3 Months): ✓
Visual observation: Pin holes on grain (weevils and weevil eggs [1]; 5 Months): ✓
Visual observation: Powder at the bottom of bag (weevils and weevil eggs [1]; 5 Months): ✓
Weevils/Insects (weevils and weevil eggs [1]; 5 Months): x
Visual observation: Pin holes on grain (weevils and weevil eggs [1]; 6 Months): ✓
Visual observation: Powder at the bottom of bag (weevils and weevil eggs [1]; 6 Months): ✓
Weevils/Insects (weevils and weevil eggs [1]; 6 Months): x
Visual observation: Pin holes on grain (weevils and weevil eggs [1]; 7 Months): ✓
Visual observation: Powder at the bottom of bag (weevils and weevil eggs [1]; 7 Months): ✓
Weevils/Insects (weevils and weevil eggs [1]; 7 Months): x
Number of weevils in treated sample compared to those in control, times less (weevils and weevil eggs [1]; at month 5): 4 times
Azoxystrobin, % Reduction [2]: 62%
No weevil infestation in system treated samples up to (weevils and weevil eggs [3]): up to 6 months
Treatment effective in delaying infestation up to (weevils and weevil eggs [3]): up to 6 months
Remarks on Weevils/Insects, Treated (weevils and weevil eggs [3]; Post 1.5 Months): No weevils/insects seen
Remarks on Weevils/Insects, Treated (weevils and weevil eggs [3]; Post 2 Months): No weevils/insects seen
Remarks on Weevils/Insects, Treated (weevils and weevil eggs [3]; Post 3 Months): No weevils/insects seen
Remarks on Weevils/Insects, Treated (weevils and weevil eggs [3]; Post 5 Months): No weevils/insects seen
Remarks on Weevils/Insects, Treated (weevils and weevil eggs [3]; Post 6 Months): No weevils/insects seen
Remarks on Weevils/Insects, Treated: black insect alive (weevils and weevil eggs [3]; Post 7 Months): insects and 1 black insect
Remarks on Weevils/Insects, Treated: small cream coloured insects alive (weevils and weevil eggs [3]; Post 7 Months): 1 small cream coloured
Visual observation: Pin holes on grain (weevils and weevil eggs [3]; 1.5 Months): ✓
Visual observation: Powder at the bottom of bag (weevils and weevil eggs [3]; 1.5 Months): ✓
Weevils/Insects (weevils and weevil eggs [3]; 1.5 Months): ✓
Visual observation: Pin holes on grain (weevils and weevil eggs [3]; 2 Months): ✓
Visual observation: Powder at the bottom of bag (weevils and weevil eggs [3]; 2 Months): ✓
Weevils/Insects (weevils and weevil eggs [3]; 2 Months): ✓
Visual observation: Pin holes on grain (weevils and weevil eggs [3]; 3 Months): ✓
Visual observation: Powder at the bottom of bag (weevils and weevil eggs [3]; 3 Months): ✓
Weevils/Insects (weevils and weevil eggs [3]; 3 Months): ✓
Visual observation: Pin holes on grain (weevils and weevil eggs [3]; 5 Months): ✓
Visual observation: Powder at the bottom of bag (weevils and weevil eggs [3]; 5 Months): ✓
Weevils/Insects (weevils and weevil eggs [3]; 5 Months): ✓
Visual observation: Pin holes on grain (weevils and weevil eggs [3]; 6 Months): ✓
Visual observation: Powder at the bottom of bag (weevils and weevil eggs [3]; 6 Months): ✓
Weevils/Insects (weevils and weevil eggs [3]; 6 Months): ✓
Visual observation: Pin holes on grain (weevils and weevil eggs [3]; 7 Months): ✓
Visual observation: Powder at the bottom of bag (weevils and weevil eggs [3]; 7 Months): ✓
Weevils/Insects (weevils and weevil eggs [3]; 7 Months): x
Novaluron, % Reduction [4]: 100%
Yeast & Mould Count, % Reduction (yeast, mould; Trial 1): 73%
Yeast & Mould Count, Results After Treatment (yeast, mould; Trial 1, before treatment 1.57 × 10^7 cfu/g): 4.18 × 10^6 cfu/g
Yeast & Mold Count, % Reduction (yeast, mould; Trial 2): 83%
Yeast & Mold Count, Results After Treatment (yeast, mould; Trial 2, before treatment 1.7 × 10^7 cfu/g): 2.9 × 10^6 cfu/g
Yeast & Mold Count, % Reduction (yeast, mould; Trial 3): 99%
Yeast & Mold Count, Results After Treatment (yeast, mould; Trial 3, before treatment 3.36 × 10^7 cfu/g): 1.87 × 10^5 cfu/g
Coliform Count, % Reduction (coliform; Trial 1): 93%
Coliform Count, Results After Treatment (coliform; Trial 1, before treatment 2.7 × 10^4 cfu/g): 1.82 × 10^3 cfu/g
Coliform Count, % Reduction (coliform; Trial 3): 100%
Coliform Count, Results After Treatment (coliform; Trial 3, before treatment 5.45 × 10^3 cfu/g): <10 cfu/g
Detection of E. coli, % Reduction (E. coli): 100%
Detection of E. coli, Results After Treatment (E. coli; before treatment Present/25 g): Absent/25 g
C17H12O6, % Reduction ([5]; Trial 2): 73%
C17H12O6, % Reduction ([5]; Trial 3): 76%
Imidacloprid, % Reduction [6]: 40%
Aerobic Plate Count, % Reduction (aerobic micro-organisms; Trial 1): 97%
Aerobic Plate Count, Results After Treatment (aerobic micro-organisms; Trial 1, before treatment 9.82 × 10^8 cfu/g): 3.0 × 10^7 cfu/g
Total Plate Count, % Reduction (aerobic micro-organisms; Trial 2): 80%
Total Plate Count, Results After Treatment (aerobic micro-organisms; Trial 2, before treatment 1.85 × 10^8 cfu/g): 3.72 × 10^7 cfu/g
Total Plate Count, % Reduction (aerobic micro-organisms; Trial 3): 97%
Total Plate Count, Results After Treatment (aerobic micro-organisms; Trial 3, before treatment 2.4 × 10^7 cfu/g): 8.36 × 10^5 cfu/g
